Data published in US11851445B2, “Compounds and uses thereof” (Foghorn Therapeutics Inc., priority 2020, dated 2023).

How the values were obtained:
BRD9 [1] = molecular target: T1, BRD9 (Homo sapiens, UniProt Q9H8M2); experiment: Pharmacodynamic BRD9 level in SYO-1 xenograft tumors, western blot (Example 14); assay type: in vivo; design: degradation endogenous BRD9 protein in two synovial sarcoma cell lines; endogenous in cells; host or cells: SYO1 (SYO-1) synovial sarcoma cells; settings: for pharmacodynamic activity assessed by BRD9 protein level: BALB/c Nude mice, i.v. single dose, FIG. 23; for BRD9 protein degradation in tumor: single dose, tumors up to 72 hours
T1 sequence (Q9H8M2 1-597): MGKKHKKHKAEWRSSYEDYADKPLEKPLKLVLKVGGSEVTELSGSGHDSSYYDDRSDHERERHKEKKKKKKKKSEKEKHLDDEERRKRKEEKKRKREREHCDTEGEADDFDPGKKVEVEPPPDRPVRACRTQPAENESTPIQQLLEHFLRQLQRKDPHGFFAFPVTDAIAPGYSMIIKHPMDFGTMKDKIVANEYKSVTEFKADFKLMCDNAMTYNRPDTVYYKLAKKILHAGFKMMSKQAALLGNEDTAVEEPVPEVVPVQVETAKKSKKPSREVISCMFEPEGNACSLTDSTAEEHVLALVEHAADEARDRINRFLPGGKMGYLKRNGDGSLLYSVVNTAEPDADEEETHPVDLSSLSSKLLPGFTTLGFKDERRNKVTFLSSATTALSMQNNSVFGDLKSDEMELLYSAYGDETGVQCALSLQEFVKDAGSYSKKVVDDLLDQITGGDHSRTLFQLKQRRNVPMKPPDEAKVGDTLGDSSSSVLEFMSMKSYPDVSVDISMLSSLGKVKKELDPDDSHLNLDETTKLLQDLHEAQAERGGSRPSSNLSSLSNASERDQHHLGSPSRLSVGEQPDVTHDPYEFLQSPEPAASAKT

BRD9 [2] = molecular target: T1, BRD9; experiment: BRD9 degradation in SYO-1 cells, western blot dose response; assay type: cell-based; design: degradation endogenous BRD9 protein in two synovial sarcoma cell lines; endogenous in cells; host or cells: SYO1 (SYO-1) synovial sarcoma cells; settings: for DC50: read-out: Fitted DC50
Protocol: (§1) Method. Synoial sarcoma cells were plated in 6-well plate at 500-100 k cells/well and treated with serial concentrations of BRD9 degrader (10 nM top concentration, diluted 1:3) the next day for two time points at 37° C. Cells were then harvested, washed with cold PBS, and frozen in cell pellets at −80° C. Lysates were prepared by resuspending thawed pellets in 1×RIPA Lysis and Extraction buffer (Thermo Fisher, Cat #89900) with 1× Halt™ Protease and Phosphatase Inhibitor Cocktail, EDTA-free (Thermo Fisher, Cat #78441) and 1:1000 dilution Pierce™ Universal Nuclease for Cell Lysis 25ku (Thermo Fisher, Cat #88700). Lysates were incubated on ice for 10 minutes and then centrifuged in 4° C. at maximum speed (15,000 rpm) for 10 minutes. Samples were then analyzed for total protein using BCA protein quantification assay and diluted to 1 μg/μL with lysis buffer and 1× NuPAGE™ LDS Sample Buffer (4×) (Thermo Fisher, Cat #NP0007) and 1×DTT from 30× stock (Cell Signaling Technologies, Cat #14265S). Samples with 20-25 ug of total protein were loaded into 4-12% Bis-Tris Mini-Gel with 1×MES Running buffer and run at 150V for 45 minutes. Gels were transferred using Trans-Blot® Turbo™ Transfer System (semi-dry) at 25V for 10 minutes (High MW setting) on nitrocellulose blots. Blots were blocked in 5% milk in TBST for 1 hour and probed with BRD9 antibody (Bethyl Labs, Cat #A303-781A, 1:750 for SYO1, and Cell Signaling Technologies, Cat #71232S for ASKA) and beta-Actin antibody (Cell Signaling Technologies, Cat #3700, 1:2000) overnight at 4° C. The next day, blots were washed in TBST 3× and probed with 1:5000 IRDye® 680LT Goat anti-Rabbit IgG Secondary Antibody (LiCOR, Cat #926-68021) and 1:10000 IRDye® 800CW Goat anti-Mouse IgG Secondary Antibody (LiCOR, Cat #926-32210) in LiCOR Odyssey® Blocking Buffer (TBS) for 1 hour at room temperature. Blots were washed in TBST 3× and scanned at […] wavelength using LiCOR Odyssey® CLx Imaging System. Western blot signal was quantified using same analyses program included in the same machine. BRD9 signal was quantified by normalizing to beta-actin signal and all samples were normalized to DMSO, set as 100% signal.

BRD9 [3] = molecular target: T1, BRD9; experiment: BRD9 degradation in ASKA cells, western blot dose response; assay type: cell-based; design: degradation endogenous BRD9 protein in two synovial sarcoma cell lines; endogenous in cells; host or cells: ASKA synovial sarcoma cells; settings: for DC50: read-out: Fitted DC50
Protocol: as §1, with “Synoial sarcoma cells were plated in 6-well plate at 500-100 k cells/well and treated with serial concentrations of BRD9 degrader (10 nM top concentration, diluted 1:3) the next day for two time points at 37° C.” left out

[4] = Interconversion between Enantiomer 1 and Enantiomer 2 in cell medium, chiral LC/MS-MS; assay type: physicochemical; settings: 0.2 μM, 37° C.
Protocol: For the assessment of interconversion between Enantiomer 1 and Enantiomer 2 in cell medium, the following test was performed. […] At designated time point, aliquot (50 μL) was taken and processed by the addition of 150 μL of acetonitrile containing 0.1% formic acid and internal standard for LC/MS-MS analysis. Peak areas of both Enantiomer 1 and Enantiomer 2 were determined for each sample using a chiral specific analytical method.

[5] = system: synovial sarcoma cell lines (SYO1, Yamato, HS-SY-II, and ASKA); experiment: Growth of synovial sarcoma cell lines (Example 2: confluency, crystal violet, colonies); assay type: cell-based; settings: FIGS. 4, 5, 6
Protocol: (§2) Cells were treated with DMSO or the BRD9 degrader, Compound 1, at indicated concentrations, and proliferation was monitored from day 7 to day 14 by measuring confluency over time using an IncuCyte live cell analysis system (FIG. 4). Growth medium and compounds were refreshed every 3-4 days.
(§3) Cells were seeded into 12-well plates and treated with DMSO, 1 μM BRD9 inhibitor, Compound 2 (also known as BI-7273, see Martin et al, J Med Chem. 59(10):4462-4475 (2016); see structure of compound 2 below), or 1 μM BRD9 degrader, Compound 1.
(§4) The number of cells was optimized for each cell line. Growth medium and compounds were refreshed every 3-5 days. SYO1, Yamato, A549, 293T and HS-SY-II cells were fixed and stained at day 11. ASKA cells were fixed and stained at day 23. Staining was done by incubation with crystal violet solution (0.5 g Crystal Violet, 27 ml 37% Formaldehyde, 100 mL 10×PBS, 10 mL Methanol, 863 dH20 to 1 L) for 30 min followed by 3× washes with water and drying the plates for at least 24 h at room temperature. Subsequently plates were scanned on an Odyssey CLx Imaging system (FIG. 5).
(§5) Cells were seeded into 96-well ultra-low cluster plate (Costar, #7007) in 200 μL complete media and treated at day 2 with DMSO, Staurosporin, or BRD9 degrader, Compound 1, at indicated doses (FIG. 2C). Media and compounds were changed every 5 d and cell colonies were imaged at day 14.

[6] = system: non-synovial control cancer cell lines (293T, A549, G401); experiment: Growth of non-synovial control cancer cell lines (Example 2); assay type: cell-based; settings: FIGS. 4, 5, 6
Protocol: as §2, §3, §4, §5

[7] = system: synovial sarcoma cell lines (SYO1, HS-SY-II, and ASKA); experiment: Growth of synovial sarcoma cell lines, crystal violet, day 14 (Example 3); assay type: cell-based; settings: SYO1, HS-SY-II, ASKA; day 14; FIG. 7
Protocol: (§6) Procedure: Cells were seeded into 6-well or 12-well plates and were treated daily with a BRD9 degrader (Compound 1), a bromo-domain BRD9 binder (Compound 2), E3 ligase binder (lenalidomide), DMSO, or staurosporin (positive control for cell killing), at indicated concentrations. The number of cells was optimized for each cell line. Growth media was refreshed every 5 days. By day 14, medium was removed, cells were washed with PBS, and stained using 500 μL of 0.005% (w/v) crystal violet solution in 25% (v/v) methanol for at least 1 hour at room temperature. Subsequently plates were scanned on an Odyssey CLx Imaging system.

[8] = system: non-synovial control cancer cell lines (RD, HCT116, and Calu6); experiment: Growth of non-synovial control cancer cell lines, crystal violet, day 14 (Example 3); assay type: cell-based; settings: FIG. 8
Protocol: as §6

Compound: COc1cc(-c2cn(C)c(=O)c3cnc(N4CCC4)cc23)cc(OC)c1CN1CCC(CN2CCC3(CC2)CN(c2ccc4c(c2)C(=O)N(C2CCC(=O)NC2=O)C4)C3)CC1 (single isomer, unassigned; enantiomer 1) [Enantiomer 1]
- pharmacodynamic activity assessed by BRD9 protein level (BRD9 [1]): inactive
- BRD9 protein degradation in tumor (BRD9 [1]): did not degrade BRD9 protein
- DC50 (BRD9 [2]; SYO-1, 1 h): 2.8 nM
- DC50 (BRD9 [2]; SYO-1, 6 h): 0.066 nM
- DC50 (BRD9 [3]; 0.5 h): > 10 nM
- BRD9 degradation activity (BRD9 [3]; 30 minutes, up to 10 μM): no discernable activity
- DC50 (BRD9 [3]; 2 h): 0.38 nM
- Mean peak area ratio of Enantiomer 2 over Enantiomer 1 peak area ratio ([4]; Enantiomer 1 Dosing, 0 h): 0.0
- Mean peak area ratio of Enantiomer 2 over Enantiomer 1 peak area ratio ([4]; Enantiomer 1 Dosing, 0.5 h): 0.0
- % Enantiomer 2 ([4]; Enantiomer 1 Dosing, 2 h): 12%
- Mean peak area ratio of Enantiomer 2 over Enantiomer 1 peak area ratio ([4]; Enantiomer 1 Dosing, 2 h): 0.13
- % Enantiomer 2 ([4]; Enantiomer 1 Dosing, 6 h): 30%
- Mean peak area ratio of Enantiomer 2 over Enantiomer 1 peak area ratio ([4]; Enantiomer 1 Dosing, 6 h): 0.43

Compound: COc1cc(-c2cn(C)c(=O)c3cnc(N4CCC4)cc23)cc(OC)c1CN1CCC(CN2CCC3(CC2)CN(c2ccc4c(c2)C(=O)N(C2CCC(=O)NC2=O)C4)C3)CC1 (single isomer, unassigned; enantiomer 2) [Enantiomer 2]
- potency compared with racemic compound D1 (BRD9 [1]): equipotent to racemic compound D1
- pharmacodynamic activity assessed by BRD9 protein level (BRD9 [1]): significant activity
- BRD9 protein degradation in tumor (BRD9 [1]): degraded BRD9 up to 72 hours after a single dose
- difference in DC50 between Enantiomer 1 and Enantiomer 2 (BRD9 [2]; SYO1, 6 h): ca. 3 fold
- BRD9 degradation compared with racemic compound D1 (BRD9 [2]; SYO-1, 1 or 6 hours, FIGS. 16 and 17): slightly better than its racemic parent compound D1
- DC50 (BRD9 [2]; SYO-1, 1 h): 0.092 nM
- DC50 (BRD9 [2]; SYO-1, 6 h): 0.023 nM
- DC50 (BRD9 [3]; 0.5 h): 0.34 nM
- difference in DC50 between Enantiomer 1 and Enantiomer 2 (BRD9 [3]; 2 h): about 32 fold
- DC50 (BRD9 [3]; 2 h): 0.012 nM
- % Enantiomer 2 ([4]; Enantiomer 2 Dosing, 0 h): 99%
- Mean peak area ratio of Enantiomer 1 over Enantiomer 2 peak area ratio ([4]; Enantiomer 2 Dosing, 0 h): 0.01
- % Enantiomer 2 ([4]; Enantiomer 2 Dosing, 0.5 h): 95%
- Mean peak area ratio of Enantiomer 1 over Enantiomer 2 peak area ratio ([4]; Enantiomer 2 Dosing, 0.5 h): 0.06
- % Enantiomer 2 ([4]; Enantiomer 2 Dosing, 2 h): 82%
- Mean peak area ratio of Enantiomer 1 over Enantiomer 2 peak area ratio ([4]; Enantiomer 2 Dosing, 2 h): 0.22
- % Enantiomer 2 ([4]; Enantiomer 2 Dosing, 6 h): 63%
- Mean peak area ratio of Enantiomer 1 over Enantiomer 2 peak area ratio ([4]; Enantiomer 2 Dosing, 6 h): 0.60

Compound: COc1cc(-c2cn(C)c(=O)c3cnccc23)cc(OC)c1CN(C)C [Compound 2, BI-7273]
- growth of the cells [5]: inhibition of the growth of the cells
- growth of the cells [6]: does not result in inhibition of the growth
- growth of the cells [7]: inhibition of the growth of the cells
- growth of the cells [8]: did not result in inhibition of the growth
